Some results are limits rather than exact numbers.

The target in the test is T1, HIV-integrase (Human immunodeficiency virus type 1 group M subtype B, UniProt P12497).
T1 construct: Recombinant integrase (0.26 ng) was incubated with the beads
The test is described as follows: HIV-Integrase Inhibition Activity (SPA strand transfer assay). Particulars: recombinant integrase, SPA beads, P33 labeled target DNA; read-out: Activity (IC50 class, HIV-integrase inhibition). Type of test: biochemical. As to the method:
HIV-Integrase InhibitionActivity. To evaluate in-vitro activity against HIV-integrase, 5 pmole of biotin labeled substrate DNA was bound to 100 μg of Streptavidin coated PVT SPA beads (Amersham Pharmacia Biotech). Recombinant integrase (0.26 ng) was incubated with the beads for 90 min at 37° C. Unbound enzyme was removed by washing the complex followed by addition of inhibitors and 0.1 fmol of P33 labeled target DNA. The reaction was stopped by adding EDTA to a final concentration of 10 mM. Samples were counted in TopCountNXT (Packard) and the CPM was used as a measure of integration. The reaction condition was as described in A. Engelman and R. Craigie, J. Virol. 69, 5908-5911 (1995). The sequences of substrate and target DNA were described in Nucleic Acid Research 22, 1121-1122 (1994). Activity equal to A refers to a compound having IC50=0.002 to 0.10 μM while B and C denote compounds having IC50=0.1 to 1.0 μM and IC50≧1.0 μM respectively.
As for `Cn1cc(CNC(=O)c2nc3n(c(=O)c2O)CCOC3(C)C)nn1` [Example 25, Pyrimido[2,1-c][1,4]oxazine-2-carboxamide, 4,6,7,9-tetrahydro-3-hydroxy-9,9-dimethyl-N-[(1-methyl-1H-1,2,3-triazol-4-yl)methyl]-4-oxo-], the IC50 is at least 1000 nM.

With `Cc1ccc(CNC(=O)c2nc3n(c(=O)c2O)CCN(C)C32CCC2)o1` [Example 77, 3′-Hydroxy-8′-methyl-N-((5-methyl-2-furyl)methyl)-4′-oxo-7′,8′-dihydro-4′H,6′H-spiro[cyclobutane-1,9′-pyrazino[1,2-a]pyrimidine]-2′-carboxamide], the IC50 was in the range of 2 to 100 nM.

As for “Pyrimido[2,1-c][1,4]oxazine-2- carboxamide, 4,6,7,9-tetrahydro-3- hydroxy-9,9-dimethyl-N-[(1- methyl-1H-pyrrol-2-yl)methyl]-4- oxo [Example 47]”, the IC50 lay within 100 to 1000 nM.

Take `CC1(C)OCCn2c1nc(C(=O)NCc1csc(-c3ccccc3)n1)c(O)c2=O` [Example 3, Pyrimido[2,1-c][1,4]oxazine-2-carboxamide, 4,6,7,9-tetrahydro-3-hydroxy-9,9-dimethyl-4-oxo-N-[(2-phenyl-4-thiazolyl)methyl]-]: the IC50 is 100 to 1000 nM.

Turning to `Cn1nc(CNC(=O)c2nc3n(c(=O)c2O)CCOC3(C)C)c2ccccc21` [Example 13, Pyrimido[2,1-c][1,4]oxazine-2-carboxamide, 4,6,7,9-tetrahydro-3-hydroxy-9,9-dimethyl-N-[(1-methyl-1H-indazol-3-yl)methyl]-4-oxo-], the IC50 lay within 2 to 100 nM.

Consider “Pyrimido[2,1-c][1,4]oxazine-2- carboxamide, 4,6,7,9-tetrahydro-3- hydroxy-9,9-dimethyl-N-[(5- methyl-2-phenyl-2H-1,2,3-triazol- 4-yl)methy]-4-oxo- [Example 49]”, for which the IC50 was at least 1000 nM.

Take `Cc1ccc(CNC(=O)c2nc3n(c(=O)c2O)CCOC3(C)C)n1C` [Example 9, Pyrimido[2,1-c][1,4]oxazine-2-carboxamide, N-[(1,5-dimethyl-1H-pyrrol-2-yl)methyl]-4,6,7,9-tetrahydro-3-hydroxy-9,9-dimethyl-4-oxo-]: the IC50 was 2 to 100 nM.

On to `CNC(=O)n1nc(CNC(=O)c2nc3n(c(=O)c2O)CCOC3(C)C)c2ccccc21` [Example 80, 3-Hydroxy-9,9-dimethyl-N-((1-(methylcarbamoyl)-1H-indazol-3-yl)methyl)-4-oxo-4,6,7,9-tetrahydropyrimido[2,1-c][1,4]oxazine-2-carboxamide], for which the IC50 lay in the range of 2 to 100 nM.

For “Pyrimido[2,1-c][1,4]oxazine-2- carboxamide, 4,6,7,9-tetrahydro-3- hydroxy-9,9-dimethyl-N-[2-(5- methyl-1H-indol-3-yl)ethyl]-4-oxo- [Example 58]”, the IC50 lay within 100 to 1000 nM.

For “Pyrimido[2,1-c][1,4]oxazine-2- carboxamide, N-[(1,3-diphenyl- 1H-pyrazol-4-yl)methyl]-4,6,7,9- tetrahydro-3-hydroxy-9,9- dimethyl-4-oxo- [Example 66]”, the IC50 was 100 to 1000 nM.

For `COC(=O)n1nc(CNC(=O)c2nc3n(c(=O)c2O)CCOC3(C)C)c2ccccc21` [Example 79, Methyl 3-((((3-hydroxy-9,9-dimethyl-4-oxo-4,6,7,9-tetrahydropyrimido[2,1-c][1,4]oxazin-2-yl)carbonyl)amino)methyl)-1H-indazole-1-carboxylate], the IC50 is 2 to 100 nM.

As to `CC1=CC=C(CNC(=O)c2nc3n(c(=O)c2O)CCOC3(C)C)S1(=O)=O` [Example 35, Pyrimido[2,1-c][1,4]oxazine-2-carboxamide, 4,6,7,9-tetrahydro-3-hydroxy-9,9-dimethyl-N-[(5-methyl-1,1-dioxido-2-thienyl)methyl]-4-oxo-], the concentration for half-maximal inhibition (IC50) is at least 1000 nM.

`Cc1ncsc1CNC(=O)c1nc2n(c(=O)c1O)CCOC2(C)C` [Example 23, Pyrimido[2,1-c][1,4]oxazine-2-carboxamide, 4,6,7,9-tetrahydro-3-hydroxy-9,9-dimethyl-N-[(4-methyl-5-thiazolyl)methyl]-4-oxo-]: the IC50 was at least 1000 nM.

For `Cc1cc(CNC(=O)c2nc3n(c(=O)c2O)CCOC3(C)C)n(C)n1` [Example 8, Pyrimido[2,1-c][1,4]oxazine-2-carboxamide, N-[(1,3-dimethyl-1H-pyrazol-5-yl)methyl]-4,6,7,9-tetrahydro-3-hydroxy-9,9-dimethyl-4-oxo-], the IC50 was in the range of 100 to 1000 nM.

Take `CC1(C)OCCn2c1nc(C(=O)NCc1cccs1)c(O)c2=O` [Example 28, Pyrimido[2,1-c][1,4]oxazine-2-carboxamide, 4,6,7,9-tetrahydro-3-hydroxy-9,9-dimethyl-4-oxo-N-(2-thienylmethyl)-]: the IC50 fell in the range of 2 to 100 nM.

As for `Cc1cccc(-n2cc(CNC(=O)c3nc4n(c(=O)c3O)CCOC4(C)C)cn2)c1` [Example 91, 3-Hydroxy-9,9-dimethyl-N-((1-(3-methylphenyl)-1H-pyrazol-4-yl)methyl)-4-oxo-4,6,7,9-tetrahydropyrimido[2,1-c][1,4]oxazine-2-carboxamide], the IC50 was at least 1000 nM.

For `Cc1nc(CNC(=O)c2nc3n(c(=O)c2O)CCOC3(C)C)cs1` [Example 7, Pyrimido[2,1-c][1,4]oxazine-2-carboxamide, 4,6,7,9-tetrahydro-3-hydroxy-9,9-dimethyl-N-[(2-methyl-4-thiazolyl)methyl]-4-oxo-], the IC50 is 100 to 1000 nM.

`CC1(C)OCCn2c1nc(C(=O)NCc1nc3c(s1)CCCCC3)c(O)c2=O` [Example 90, 3-Hydroxy-9,9-dimethyl-4-oxo-N-(5,6,7,8-tetrahydro-4H-cyclohepta[d][1,3]thiazol-2-ylmethyl)-4,6,7,9-tetrahydropyrimido[2,1-c][1,4]oxazine-2-carboxamide]: the IC50 is 2 to 100 nM.

Turning to `Cc1csc(CNC(=O)c2nc3n(c(=O)c2O)CCCC32CCC2)c1` [Example 83, 3′-Hydroxy-N-((4-methyl-2-thienyl)methyl)-4′-oxo-7′,8′-dihydro-4′H,6′H-spiro[cyclobutane-1,9′-pyrido[1,2-a]pyrimidine]-2′-carboxamide], the IC50 was 2 to 100 nM.

As to “Pyrimido[2,1-c][1,4]oxazine-2- carboxamide, 4,6,7,9-tetrahydro-3- hydroxy-9,9-dimethyl-4-oxo-N- (1H-pyrazol-3-ylmethyl)- [Example 69]”, the IC50 is 100 to 1000 nM.

With `CC1(C)OCCn2c1nc(C(=O)NCc1csc(-c3ccc(Cl)cc3)n1)c(O)c2=O` [Example 4, Pyrimido[2,1-c][1,4]oxazine-2-carboxamide, N-[[2-(4-chlorophenyl)-4-thiazolyl]methyl]-4,6,7,9-tetrahydro-3-hydroxy-9,9-dimethyl-4-oxo-], the IC50 fell in the range of 100 to 1000 nM.

On to `CC1(C)OCCn2c1nc(C(=O)NCc1cc(C(=O)O)co1)c(O)c2=O` [Example 75, 3-Furancarboxylic acid, 5-[[[(4,6,7,9-tetrahydro-3-hydroxy-9,9-dimethyl-4-oxopyrimido[2,1-c][1,4]oxazin-2-yl)carbonyl]amino]methyl]], for which the IC50 was at least 1000 nM.

`Cc1nnc(CNC(=O)c2nc3n(c(=O)c2O)CCOC3(C)C)o1` [Example 86, 3-Hydroxy-9,9-dimethyl-N-((5-methyl-1,3,4-oxadiazol-2-yl)methyl)-4-oxo-4,6,7,9-tetrahydropyrimido[2,1-c][1,4]oxazine-2-carboxamide]: the 50% inhibitory concentration (IC50) is at least 1000 nM.

For `CC1(C)OCCn2c1nc(C(=O)NCCc1c[nH]c3ccc(F)cc13)c(O)c2=O` [Example 14, Pyrimido[2,1-c][1,4]oxazine-2-carboxamide, N-[2-(5-fluoro-1H-indol-3-yl)ethyl]-4,6,7,9-tetrahydro-3-hydroxy-9,9-dimethyl-4-oxo-], the IC50 fell in the range of 2 to 100 nM.

“Pyrimido[2,1-c][1,4]oxazine-2- carboxamide, 4,6,7,9-tetrahydro-3- hydroxy-9,9-dimethyl-4-oxo-N-[2- (2-thienyl)ethyl]- [Example 53]”: the IC50 was in the range of 100 to 1000 nM.

As to `Cc1cc(CNC(=O)c2nc3n(c(=O)c2O)CCOC3(C)C)nn1C(C)C` [Example 19, Pyrimido[2,1-c][1,4]oxazine-2-carboxamide, 4,6,7,9-tetrahydro-3-hydroxy-9,9-dimethyl-N-[[5-methyl-1-(1-methylethyl)-1H-pyrazol-3-yl]methyl]-4-oxo-], the IC50 fell in the range of 2 to 100 nM.

With `CC1(C)OCCn2c1nc(C(=O)NCc1ccco1)c(O)c2=O` [Example 38, Pyrimido[2,1-c][1,4]oxazine-2-carboxamide, N-(2-furanylmethyl)-4,6,7,9-tetrahydro-3-hydroxy-9,9-dimethyl-4-oxo-], the IC50 was in the range of 2 to 100 nM.

As to `Cc1cc(C)n2nc(CNC(=O)c3nc4n(c(=O)c3O)CCOC4(C)C)nc2n1` [Example 21, Pyrimido[2,1-c][1,4]oxazine-2-carboxamide, N-[(5,7-dimethyl[1,2,4]triazolo[1,5-a]pyrimidin-2-yl)methyl]-4,6,7,9-tetrahydro-3-hydroxy-9,9-dimethyl-4-oxo-], the IC50 was at least 1000 nM.

Take “Pyrimido[2,1-c][1,4]oxazine-2- carboxamide, N-[(1-ethyl-3- methyl-1H-pyrazol-4-yl)methyl]- 4,6,7,9-tetrahydro-3-hydroxy-9,9- dimethyl-4-oxo- [Example 63]”: the IC50 was in the range of 100 to 1000 nM.

As to `CC1(C)OCCn2c1nc(C(=O)NCc1nc3ccccc3[nH]1)c(O)c2=O` [Example 22, Pyrimido[2,1-c][1,4]oxazine-2-carboxamide, N-(1H-benzimidazol-2-ylmethyl)-4,6,7,9-tetrahydro-3-hydroxy-9,9-dimethyl-4-oxo-], the IC50 is at least 1000 nM.
